Reference: US20260138961A1, “MODULATORS OF MITOCHONDRIAL DNA REPLICATION” (Pretzel Therapeutics, Inc., priority 2022, published 2026)

Each compound was assayed against T1, wild type human POLγ (POLγA:WT) (Homo sapiens, UniProt P54098) (assay: DNA polymerization assay, wild type POLγ). Settings: 0.1 μM dNTP, read-out: WT AC50 (μM) at 0.1 μM.
T1 sequence (P54098 1-1239): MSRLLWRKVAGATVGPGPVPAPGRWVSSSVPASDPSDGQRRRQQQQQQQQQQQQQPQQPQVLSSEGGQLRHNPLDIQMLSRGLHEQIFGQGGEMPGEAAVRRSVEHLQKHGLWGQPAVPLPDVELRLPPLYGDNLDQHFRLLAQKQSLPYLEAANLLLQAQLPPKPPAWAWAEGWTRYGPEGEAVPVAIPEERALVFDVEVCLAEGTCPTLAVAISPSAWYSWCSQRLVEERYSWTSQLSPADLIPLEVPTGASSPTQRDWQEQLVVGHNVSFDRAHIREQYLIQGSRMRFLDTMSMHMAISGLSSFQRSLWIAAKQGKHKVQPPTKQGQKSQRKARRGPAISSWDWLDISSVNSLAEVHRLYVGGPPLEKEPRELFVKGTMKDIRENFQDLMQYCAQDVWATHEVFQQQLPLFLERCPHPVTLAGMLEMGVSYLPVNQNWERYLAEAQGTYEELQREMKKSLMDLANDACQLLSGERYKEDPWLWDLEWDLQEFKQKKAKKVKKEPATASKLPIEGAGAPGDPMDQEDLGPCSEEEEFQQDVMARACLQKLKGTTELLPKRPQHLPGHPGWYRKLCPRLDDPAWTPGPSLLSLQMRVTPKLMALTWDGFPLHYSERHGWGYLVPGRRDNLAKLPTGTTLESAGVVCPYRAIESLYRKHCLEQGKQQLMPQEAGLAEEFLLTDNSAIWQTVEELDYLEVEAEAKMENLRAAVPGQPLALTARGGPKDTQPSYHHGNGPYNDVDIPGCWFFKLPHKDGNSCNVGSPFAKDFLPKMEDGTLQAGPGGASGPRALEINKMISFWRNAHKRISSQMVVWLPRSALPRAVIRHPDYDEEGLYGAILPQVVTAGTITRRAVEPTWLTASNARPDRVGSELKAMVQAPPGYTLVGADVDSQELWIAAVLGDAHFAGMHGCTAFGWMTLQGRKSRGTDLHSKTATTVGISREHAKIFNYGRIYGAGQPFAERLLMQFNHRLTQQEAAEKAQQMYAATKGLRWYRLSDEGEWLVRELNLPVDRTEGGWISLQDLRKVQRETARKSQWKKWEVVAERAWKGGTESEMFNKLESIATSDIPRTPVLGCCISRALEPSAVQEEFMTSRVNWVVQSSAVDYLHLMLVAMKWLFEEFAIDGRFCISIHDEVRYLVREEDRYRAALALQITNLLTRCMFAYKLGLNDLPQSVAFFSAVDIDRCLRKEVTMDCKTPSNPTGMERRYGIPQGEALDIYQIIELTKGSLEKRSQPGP
T1 sequence (Q9UHN1 1-485 partner): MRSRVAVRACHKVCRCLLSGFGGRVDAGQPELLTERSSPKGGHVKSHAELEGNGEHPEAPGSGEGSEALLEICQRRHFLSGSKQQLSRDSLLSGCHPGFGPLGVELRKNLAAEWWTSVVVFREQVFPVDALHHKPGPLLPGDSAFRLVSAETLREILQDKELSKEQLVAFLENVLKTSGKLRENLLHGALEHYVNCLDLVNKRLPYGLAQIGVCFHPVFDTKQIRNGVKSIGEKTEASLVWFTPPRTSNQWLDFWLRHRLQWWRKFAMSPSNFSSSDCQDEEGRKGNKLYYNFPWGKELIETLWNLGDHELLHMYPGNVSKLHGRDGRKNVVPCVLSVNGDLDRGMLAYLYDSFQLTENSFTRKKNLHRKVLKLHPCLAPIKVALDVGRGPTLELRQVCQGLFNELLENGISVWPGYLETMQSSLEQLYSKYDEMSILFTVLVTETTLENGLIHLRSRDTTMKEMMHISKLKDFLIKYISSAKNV
Assay type: biochemical

Row | AC50 [µM] | Structure (SMILES)
1 | > 100 | Cc1csc(-c2ccccc2NS(=O)(=O)c2cc(C)c(Cl)cc2C)n1 [Example 80, 4-chloro-2,5-dimethyl-N-(2-(4-methylthiazol-2-yl)phenyl)benzenesulfonamide]

Same assay, conditions: 100 μM dNTP, read-out: WT AC50 (μM) at 100 μM

Row | AC50 [µM] | Structure (SMILES)
2 | 4 | Cc1cc(S(=O)(=O)Nc2ccc3ccn(C)c3c2)c(C)cc1Cl [Example 72, 4-chloro-2,5-dimethyl-N-(1-methyl-1H-indol-6-yl)benzenesulfonamide]
3 | 2 | Cc1nc2ccc(NS(=O)(=O)c3cc(C)c(Cl)cc3C)cc2s1 [Example 73, 4-chloro-2,5-dimethyl-N-(2-methylbenzo[d]thiazol-6-yl)benzenesulfonamide]
4 | 6 | Cc1cnc(-c2ccc(NS(=O)(=O)c3cc(C)c(Cl)cc3C)cc2)s1 [Example 83, 4-chloro-2,5-dimethyl-N-(4-(5-methylthiazol-2-yl)phenyl)benzenesulfonamide]

Continued, compound first:

Row | Structure (SMILES) | AC50 [µM]
5 | Cc1cc(S(=O)(=O)Nc2cccc(-c3ncc(C4CC4)s3)c2)c(C)cc1Cl [Example 76, 4-chloro-N-(3-(5-cyclopropylthiazol-2-yl)phenyl)-2,5-dimethylbenzenesulfonamide] | 0.4
6 | Cc1cc(S(=O)(=O)Nc2csc(-c3ccccc3)n2)c(C)cc1Cl [Example 81, 4-chloro-2,5-dimethyl-N-(2-phenylthiazol-4-yl)benzenesulfonamide] | 0.2
7 | Cc1cc(S(=O)(=O)Nc2cccc(-c3ncc(CN(C)C)s3)c2)c(C)cc1Cl [Example 87, 4-chloro-N-(3-(5-((dimethylamino)methyl)thiazol-2-yl)phenyl)-2,5-dimethylbenzenesulfonamide] | 4
8 | Cc1cc(S(=O)(=O)Nc2cccc(-c3ncc(CO)s3)c2)c(C)cc1Cl [Example 89, 4-chloro-N-(3-(5-(hydroxymethyl)thiazol-2-yl)phenyl)-2,5-dimethylbenzenesulfonamide] | 0.3
